Assay results as given in US9936701B2, “Herbicidal compounds” (Syngenta Participations AG, priority 2013, dated 2018).

Legend:
[1] = system: a variety of test species; assay: Post-emergence herbicidal activity (glasshouse, sprayed after 8 days cultivation, evaluated after 13 days); format: in vivo; parameters: key: 5=total damage to plant; 0=no damage to plant; conditions: rate 1000 g/Ha, scale 0-5
In short: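 Damage was rated 0-5 (5 = total) 13 days after a post-emergence spray of acetone/water (50:50) plus 0.5% Tween 20 formulation. Plants were sprayed at 8 days' growth and kept at 24/16° C, 14 h light, 65% humidity, watered twice daily.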

[2] = system: a variety of test species; assay: Pre-emergence herbicidal activity (glasshouse, sprayed one day after sowing, evaluated after 13 days); format: in vivo; parameters: key: 5=total damage to plant; 0=no damage to plant; conditions: application pre-emergence, rate 1000 g/Ha, scale 0-5
In short: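 Compounds are applied pre-emergence as an aqueous spray, formulated in 50:50 acetone/water containing 0.5% Tween 20, to pots sown one day earlier. Plants grow in a controlled glasshouse and are scored 13 days later for damage from 0 to 5.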

melting point | SMILES | ABUTH (Abutilon theophrasti) damage score, application post-emergence [1] | ALOMY (Alopecurus myosuroides) damage score, application post-emergence [1] | AMARE (Amaranthus retroflexus) damage score, application post-emergence [1] | ECHCG (Echinochloa crus-galli) damage score, application post-emergence [1] | SETFA (Setaria faberi) damage score, application post-emergence [1] | ZEAMX (Zea mays) damage score, application post-emergence [1] | Pre-emergence herbicidal damage score, ABUTH [2] | Pre-emergence herbicidal damage score, ALOMY [2] | Pre-emergence herbicidal damage score, AMARE [2] | Pre-emergence herbicidal damage score, ECHCG [2] | Pre-emergence herbicidal damage score, SETFA [2] | Pre-emergence herbicidal damage score, ZEAMX [2]
96 to 98 °C | CCCC(C)(C)c1cc(N2C(=O)C(Cl)=C(C)C2O)no1 (stereo not shown) [A37] | 5 | 5 | 5 | 5 | 5 | 3 | 5 | 4 | 5 | 5 | 4 | 1
75 to 77 °C | CCCCC(C)(C)c1cc(N2C(=O)C(Cl)=C(C)C2O)no1 (stereo not shown) [A38] | 5 | 5 | 5 | 5 | 5 | 2 | 1 | 3 | 5 | 5 | 2 | 1
130 to 132 °C | CC1=C(Cl)C(=O)N(c2cc(C(C)(C)CO)on2)C1O (stereo not shown) [A39] | 4 | 3 | 5 | 5 | 1 | 1 | 1 | 1 | 4 | 3 | 0 | 1
166 to 168 °C | CCC(C)(C)c1onc(N2C(=O)C(Cl)=C(C)C2O)c1C#N (stereo not shown) [A40] | 5 | 4 | 5 | 5 | 5 | 3 | 4 | 3 | 5 | 5 | 5 | 2

The remaining lines, values behind:

SMILES | melting point | ABUTH (Abutilon theophrasti) damage score, application post-emergence [1] | ALOMY (Alopecurus myosuroides) damage score, application post-emergence [1] | AMARE (Amaranthus retroflexus) damage score, application post-emergence [1] | ECHCG (Echinochloa crus-galli) damage score, application post-emergence [1] | SETFA (Setaria faberi) damage score, application post-emergence [1] | ZEAMX (Zea mays) damage score, application post-emergence [1] | Pre-emergence herbicidal damage score, ABUTH [2] | Pre-emergence herbicidal damage score, ALOMY [2] | Pre-emergence herbicidal damage score, AMARE [2] | Pre-emergence herbicidal damage score, ECHCG [2] | Pre-emergence herbicidal damage score, SETFA [2] | Pre-emergence herbicidal damage score, ZEAMX [2]
CC1=C(Cl)C(=O)N(c2cc(C(C)c3ccccc3)on2)C1O (stereo not shown) [A30] | 118 to 120 °C | 5 | 3 | 5 | 5 | 4 | 2 | 2 | 2 | 4 | 1 | 1 | 1
CC1=C(Cl)C(=O)N(c2noc(C(C)(C)C)c2C#N)C1O (stereo not shown) [A31, 5-tert-butyl-3-(4-chloro-2-hydroxy-3-methyl-5-oxo-2H-pyrrol-1-yl)isoxazole-4-carbonitrile] | 174 to 176 °C | 5 | 5 | 5 | 5 | 5 | 4 | 5 | 3 | 5 | 5 | 5 | 3
C=CCOCC(C)(C)c1cc(N2C(=O)C(Cl)=C(C)C2O)no1 (stereo not shown) [A33] | 66 to 68 °C | 5 | 4 | 5 | 5 | 4 | 5 | 3 | 2 | 5 | 4 | 3 | 3
CCOCC(C)(C)c1cc(N2C(=O)C(Cl)=C(C)C2O)no1 (stereo not shown) [A34] | 99 to 101 °C | 5 | 4 | 5 | 5 | 4 | 5 | 5 | 3 | 5 | 5 | 4 | 2
CC(C)=CCCc1cc(N2C(=O)C(Cl)=C(C)C2O)no1 (stereo not shown) [A35] | 72 to 74 °C | 4 | 1 | 5 | 2 | 0 | 1 | 1 | 1 | 3 | 0 | 0 | 0
CCOC(C)(C)CCCc1cc(N2C(=O)C(Cl)=C(C)C2O)no1 (stereo not shown) [A36] | 110 to 112 °C | 5 | 4 | 5 | 5 | 2 | 1 | 5 | 3 | 5 | 4 | 1 | 1
